# Laboratory results from patent US20250057963A1, “DISCOVERY OF PIPERLONGUMINE AS A NOVEL E3 LIGASE LIGAND” (University of Florida Research Foundation, Incorporated, priority 2021, published 2025).
# “Also recorded” adds a separate entry of the source.
# Tests used:
# [1] = system: PL-binding proteins in MOLT4 cells; test: Competitive ABPP with PL-Alkyne probe and LC-MS/MS in MOLT4 cells; parameters: species or system Human
# Method: Competitive ABPP. MOLT4 cells (2×10^7) were pre-treated with DMSO or 20 µM PL for 4 h and then treated with 1 μM PL-Alkyne probe (Zhang et al., 2018b) for an additional 4 h. The cells were then harvested and lysed in 1× Dulbecco's phosphate-buffered saline (PBS) buffer (Cat. #D1408, Sigma-Aldrich) containing protease and phosphatase inhibitors. CuAAC reaction was performed as previously described (Spradlin et al., 2019) and biotinylated proteins were enriched using Pierce™ streptavidin agarose beads (Cat. #20353, ThermoFisher).
# Sample preparation and LC-MS/MS analysis. Protein samples were reduced, alkylated, and digested on-bead using filter-aided sample preparation (Wisniewski et al., 2009) with sequencing grade modified porcine trypsin (Cat. No. V5111, Promega). […]
# The MS/MS was acquired according to standard conditions established in the lab. […] The scan sequence of the mass spectrometer was based on the original TopTen™ method; the analysis was programmed for a full scan recorded between 375-1575 Da at 60,000 resolution, and a MS/MS scan at resolution 15,000 to generate product ion spectra to determine amino acid sequence in consecutive instrument scans of the fifteen most abundant peaks in the spectrum. […]
# Data processing and analysis. All MS/MS samples were analyzed using Sequest (Thermo Fisher Scientific, San Jose, CA, USA; version IseNode in Proteome Discoverer 2.4.0.305). […]
# CDK9 = CDK9 (Homo sapiens, UniProt P50750); test: CDK9 degradation in MOLT4 cells (immunoblot); assay type: cell-based; parameters: endogenous in cells; host or cells: MOLT4, 293T, K562, NCI-H1299, LNCaP; conditions: immunoblot
# CDK9, sequence (P50750 whole entry): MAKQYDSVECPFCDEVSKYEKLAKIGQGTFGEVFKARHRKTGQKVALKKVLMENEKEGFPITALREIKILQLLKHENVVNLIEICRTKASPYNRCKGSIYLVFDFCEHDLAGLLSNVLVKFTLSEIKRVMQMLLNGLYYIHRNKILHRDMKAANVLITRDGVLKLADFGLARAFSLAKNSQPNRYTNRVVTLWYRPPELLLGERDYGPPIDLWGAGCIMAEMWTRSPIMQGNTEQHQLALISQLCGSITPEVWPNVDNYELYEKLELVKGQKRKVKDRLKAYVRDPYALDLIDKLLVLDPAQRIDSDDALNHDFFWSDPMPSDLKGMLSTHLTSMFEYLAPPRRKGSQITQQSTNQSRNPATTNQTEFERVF
# Method: All the cell lines were maintained in a humidified incubator at 37° C. and 5% CO2.
# Data analysis was performed using GraphPad Prism software (version 9) unless indicated otherwise. All graphs presented represent the mean±standard deviation of the mean (SD) unless otherwise stated.
# [2] = system: proteins in senescent WI38 cells; conditions: cited from earlier work
# [3] = system: LNCaP prostate cancer cells and H1299 lung cancer cells; test: Cell killing (MTS) with or without KEAP1 siRNA knockdown; assay type: cell-based, Human; conditions: KEAP1 siRNA vs control siRNA 48 h; compound 0.1 mM (LNCaP) or 0.3 mM (H1299) for 24 h
# Method: FIGS. 19A to 19B show percentages of cell killing in LNCaP (FIG. 19A) and H1299 (FIG. 19B) cells with or without KEAP1 knockdown. LNCaP and H1299 cells were treated with control siRNA or siRNAs targeting KEAP1 for 48 h and then reseeded and treated with indicated compound (0.1 mM for LNCaP cells and 0.3 mM for H1299 cells) for 24 h. The cell viability was then determined by MTS assay. The data are presented as mean±SD from three replicate cell cultures in a representative experiment. Data are representative of two independent experiments. Statistical significance was calculated with unpaired two-tailed Student's t-tests. **P<0.01; ***P<0.001; NS: not significant.
# Viability (MTS) assays in various cancer cells followed the methods described in our previous report (Khan et al., 2019). The data were expressed as average % cell viability and fitted in non-linear regression curves using GraphPad Prism 9 (GraphPad Software, La Jolla, CA, USA).
# [4] = target: T1, CDK9: 955: KEAP1 ternary complex (Homo sapiens, UniProt P50750+Q14145); test: NanoBRET ternary complex formation assay in live 293T cells; assay type: cell-based; conditions: HiBit-CDK9 and Halo-KEAP1 in 293T cells, 6 h
# T1 construct: expressed in transfected cells; host or cells: 293T
# T1 sequence (P50750 whole entry): as above
# T1 sequence (Q14145 whole entry): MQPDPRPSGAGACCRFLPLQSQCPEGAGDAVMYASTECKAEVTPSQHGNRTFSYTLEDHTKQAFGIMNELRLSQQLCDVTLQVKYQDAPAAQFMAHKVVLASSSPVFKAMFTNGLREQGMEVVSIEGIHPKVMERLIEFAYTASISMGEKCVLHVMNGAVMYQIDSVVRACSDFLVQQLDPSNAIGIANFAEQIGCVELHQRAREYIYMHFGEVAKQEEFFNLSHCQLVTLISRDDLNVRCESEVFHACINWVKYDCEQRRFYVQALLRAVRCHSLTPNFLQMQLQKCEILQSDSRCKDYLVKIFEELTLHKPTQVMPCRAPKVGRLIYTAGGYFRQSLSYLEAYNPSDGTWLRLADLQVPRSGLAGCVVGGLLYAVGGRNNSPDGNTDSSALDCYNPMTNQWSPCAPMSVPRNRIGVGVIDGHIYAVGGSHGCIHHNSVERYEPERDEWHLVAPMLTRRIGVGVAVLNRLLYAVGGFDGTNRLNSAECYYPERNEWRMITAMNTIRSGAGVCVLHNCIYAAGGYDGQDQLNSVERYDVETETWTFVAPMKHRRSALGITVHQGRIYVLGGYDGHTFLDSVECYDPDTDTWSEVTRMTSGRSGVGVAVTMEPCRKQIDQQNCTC
# Source text: CMV HiBit (Cat. No. CS1956B03) was purchased from Promega. Plasmid HaloTag-KEAP1 (a gift from Yimon Aye, plasmid #58240) was purchased from Addgene. HiBit-CDK9 were constructed through the Gibson assembly method. The primer pair (5′-[…]atggcaaagcagtacgactcggtggag-3′ and 5′-[…]gaagacgcgctcaaactccgtctggt-3′) and the template HA-CDK9 (a gift from Andrew Rice, plasmid #28102) was used to clone the CDK9 fragment. The primer pair (5′-accagacggagtttgagcgcgtcttc[…]-3′ and 5′-ctccaccgagtcgtactgcttcgccat[…]-3′) and pBit3.1—N(Cat. No. N2361, Promega) were used to clone the vector-containing fragment. The PCR fragments were assembled using NEBuilder® HiFi DNAAssembly Master Mix. DNA sequences in all these plasmids were authenticated by automatic sequencing. […] After treatment, NanoBRET Nano-Glo Substrate (Cat. No. N1662, Promega) was added into the medium, and the contents were mixed by shaking the plate for 30 s before measuring donor and acceptor signals on Biotek plate reader. Dual-filtered luminescence was collected with a 450/50 nm bandpass filter (donor, NanoBiT-CDK9 protein) and a 610-nm longpass filter (acceptor, HaloTag NanoBRET ligand) using an integration time of 0.5 s. mBRET ratios were calculated following the NanoBRET™ Nano-Glo® Detection System (Cat. No. N1662, Promega).
# EML4-ALK = target: T2, EML4-ALK (Homo sapiens, UniProt Q9UM73); test: EML4-ALK degradation in NCI-H2228 cells (immunoblot); assay type: cell-based
# T2 construct: endogenous in cells; host or cells: NCI-H2228; the other entry of the earlier key: EML4 (Q9HC35, Echinoderm microtubule-associated protein-like 4)
# T2 sequence (Q9UM73 with tags, fused parts or gaps): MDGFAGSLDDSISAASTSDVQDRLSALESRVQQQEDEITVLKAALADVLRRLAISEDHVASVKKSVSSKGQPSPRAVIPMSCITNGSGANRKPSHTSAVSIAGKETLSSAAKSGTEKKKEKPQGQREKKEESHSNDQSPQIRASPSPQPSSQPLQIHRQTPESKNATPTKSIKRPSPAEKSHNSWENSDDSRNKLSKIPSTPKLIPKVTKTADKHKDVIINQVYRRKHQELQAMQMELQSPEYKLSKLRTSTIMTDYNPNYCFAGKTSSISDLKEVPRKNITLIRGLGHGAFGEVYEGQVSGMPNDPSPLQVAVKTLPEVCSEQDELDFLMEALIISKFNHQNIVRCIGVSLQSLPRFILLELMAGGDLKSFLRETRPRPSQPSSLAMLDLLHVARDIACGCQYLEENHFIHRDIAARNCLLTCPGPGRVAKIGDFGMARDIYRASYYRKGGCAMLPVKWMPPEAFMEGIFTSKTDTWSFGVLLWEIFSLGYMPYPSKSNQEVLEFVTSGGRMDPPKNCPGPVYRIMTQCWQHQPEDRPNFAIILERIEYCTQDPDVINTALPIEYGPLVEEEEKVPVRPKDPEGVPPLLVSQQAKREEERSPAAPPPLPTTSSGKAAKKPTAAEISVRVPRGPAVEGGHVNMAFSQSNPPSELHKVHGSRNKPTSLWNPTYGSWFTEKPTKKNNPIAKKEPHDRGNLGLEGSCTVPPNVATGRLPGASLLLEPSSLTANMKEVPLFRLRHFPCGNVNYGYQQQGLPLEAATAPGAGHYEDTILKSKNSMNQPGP
# Method: Human T-ALL MOLT4 (Cat. No. CRL-1582), K562 (Cat. No. CCL-243), NCI-H1299 (Cat. No. CRL-5803), NCI-H2228 (Cat. No. CRL-5935), LNCaP (Cat. No. CRL-1740), 22RV1 (Cat. No. CRL-2505), PC3 (Cat. No. CRL-1435), DU145 (Cat. No. HTB-81), and epithelial kidney HEK 293T (293T, Cat. No. ACS-4500) cell lines were recently purchased from American Type Culture Collection (ATCC, Manassas, VA, USA). MOLT4, K562, NCI—H-1299, NCI-H2228, LNCap, and 22RV 1 cell lines were cultured in RPMI 1640 medium (Cat No. 22400-089, Thermo Fisher Scientific, Waltham, MA, USA) supplemented with 10% (v/v) heat-inactivated fetal bovine serum (FBS, Cat. No. S11150H, Atlanta Biologicals, Flowery Branch, GA, USA), 100 U/mL penicillin and 100 pig/mL streptomycin (Pen-Strep, Cat. No. 15140122, Thermo Fisher Scientific). PC3 cells were cultured in complete F—12K medium (Kaighn's modification of Ham's F-12 medium, Cat. No. 30-2004, ATCC) supplemented with 10% (v/v) heat-inactivated FBS, 100 U/mL penicillin, and 100 μg/mL streptomycin. DU145 cells were cultured in complete Eagle's Minimum Essential Medium (EMEM, Cat. No. 30-2003, ATCC) supplemented with 10% (v/v) heat-inactivated FBS, 100 U/mL penicillin, and 100 μg/mL streptomycin. […]
# Immunoblot data were quantified using the ImageJ (v 1.53a) software from NIH. […]
formation of the CDK9:KEAP1 ternary complex [4],"819-induced EML4-ALK degradation after pre-treatment with MG132, MLN4924 or DMF (EML4-ALK)",Compound,number of PL-binding E3 ligases [1],number of PL-binding proteins [1],CDK9 degradation (CDK9),"number of PL-binding proteins ([2]; senescent WI38 fibroblasts, previous study)","number of PL-binding E3 ligases ([2]; senescent cells, previous study (Zhang et al., 2018b))",effect of KEAP1 knockdown on cytotoxicity of the compound [3],EML4-ALK degradation (EML4-ALK; immunoblot)
,,"COc1cc(/C=C/C(=O)N2CCC=CC2=O)cc(OC)c1OC [PL, Piperlongumine]",9,about 300,"only 955, degraded CDK9; also recorded: none of these treatments degraded CDK9",172,8,,
did not; also recorded: negligible,,"COc1cc(CCC(=O)N2CCCCC2=O)cc(OC)c1OCCN1CCN(C(=O)CN2CCC(C(=O)Nc3ncc(SCc4ncc(C(C)(C)C)o4)s3)CC2)CC1 [compound 336, N-(5-(((5-(tert-butyl)oxazol-2-yl)methyl)thio)thiazol-2-yl)-1-(2-(4-(2-(2,6-dimethoxy-4-(3-oxo-3-(2-oxopiperidin-1-yl)propyl)phenoxy)ethyl)piperazin-1-yl)-2-oxoethyl)piperidine-4-carboxamide]",,,"could not induce CDK9 degradation; also recorded: but not 336, can induce CDK9 degradation; also recorded: cannot degrade CDK9",,,no significant effect,
,can be blocked,"COc1cc(/C=C/C(=O)N2CCC=CC2=O)cc(OC)c1OCC(=O)N1CCC(c2cc(OC(C)C)c(Nc3ncc(Cl)c(Nc4ccccc4S(=O)(=O)C(C)C)n3)cc2C)CC1 [compound 819, (E)-1-(3-(4-(2-(4-(4-((5-chloro-4-((2-(isopropylsulfonyl)phenyl)amino)pyrimidin-2-yl)amino)-5-isopropoxy-2-methylphenyl)piperidin-1-yl)-2-oxoethoxy)-3,5-dimethoxyphenyl)acryloyl)-5,6-dihydropyridin-2(1H)-one]",,,,,,,concentration-dependent manner; also recorded: degrades EML4-ALK
